Measurements: PubChem BioAssay AID200 (DTP/NCI, 2004)
Several values for one entry are separate records, joined by “and”; a condition that tells them apart may be missing. Identical values can stand only once. Inconclusive results and toxic doses are left out.

Tested on: B6C3F1 mice, B16 melanoma ip, median survival T/C
Assay: NCI In Vivo Anticancer Drug Screen. Data for tumor model B16 Melanoma (intraperitoneal) in B6C3F1 mice
Conditions: endpoint: median survival time, higher = longer survival
Summary of the method: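 Readout: survival or tumor size in treated mice relative to vehicle controls (T/C). Model uses transplantable tumors grown in mice.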

[1] = dose: 20.0 mg/kg/injection, schedule: Q01DX009 (ip), vehicle: Klucel (hydroxypropylcellulose) (HPC)
[2] = dose: 40.0 mg/kg/injection, schedule: Q01DX009 (ip), vehicle: Klucel (hydroxypropylcellulose) (HPC)
[3] = dose: 80.0 mg/kg/injection, schedule: Q01DX009 (ip), vehicle: Klucel (hydroxypropylcellulose) (HPC)
[4] = dose: 12.5 mg/kg/injection, schedule: Q01DX009 (ip), vehicle: Klucel (hydroxypropylcellulose) (HPC)
[5] = dose: 25.0 mg/kg/injection, schedule: Q01DX009 (ip), vehicle: Klucel (hydroxypropylcellulose) (HPC)
[6] = dose: 50.0 mg/kg/injection, schedule: Q01DX009 (ip), vehicle: Klucel (hydroxypropylcellulose) (HPC)
[7] = dose: 100.0 mg/kg/injection, schedule: Q01DX009 (ip), vehicle: Klucel (hydroxypropylcellulose) (HPC)
[8] = dose: 6.25 mg/kg/injection, schedule: Q01DX009 (ip), vehicle: saline with Tween-80
[9] = dose: 12.5 mg/kg/injection, schedule: Q01DX009 (ip), vehicle: saline with Tween-80
[10] = dose: 25.0 mg/kg/injection, schedule: Q01DX009 (ip), vehicle: saline with Tween-80

`CC(C)NC(=O)OCc1c(COC(=O)NC(C)C)c(-c2ccc(Cl)c(Cl)c2)n2c1C[C@@H](O)C2` was tested, and the T/C (dose: 5.0 mg/kg/injection, schedule: Q01DX009 (ip), vehicle: water) was 160 % of control, the T/C (dose: 10.0 mg/kg/injection, schedule: Q01DX009 (ip), vehicle: water) was 196 % of control and the T/C [1] was 196 % of control. The T/C (dose: 20.0 mg/kg/injection, schedule: Q01DX009 (ip), vehicle: water) was 289 % of control, the T/C [2] was 223 % of control and the T/C (dose: 40.0 mg/kg/injection, schedule: Q01DX009 (ip), vehicle: water) was 191 % of control. For the same compound, the T/C [3] was 101 % of control.

With `Oc1c(Cl)cc(Cl)cc1C1N2CCCCC2C2c3cccn3-c3ccccc3N21` (stereo not given) the T/C [4] was 101 % of control, the T/C [5] was 98 % of control and the T/C [6] was 104 % of control. For the same compound, the T/C [7] was 98 % of control and the T/C (dose: 200.0 mg/kg/injection, schedule: Q01DX009 (ip), vehicle: Klucel (hydroxypropylcellulose) (HPC)) was 87 % of control.

For `CC(=O)[C@]1(O)Cc2c(O)c3c(c(O)c2[C@@H](OC2CC(N)C(O)C(C)O2)C1)C(=O)c1c(O)cccc1C3=O` (stereo not given in full), the T/C (dose: 0.38 mg/kg/injection, schedule: Q01DX001 (ip), vehicle: water) was 150 % of control.

With `C=C1C(=O)OC2/C=C(\C)CC(O)/C=C(/CO)CC(OC(=O)/C(C)=C/C)C12` (stereo not given) the T/C (dose: 7.5 mg/kg/injection, schedule: Q01DX009 (ip), vehicle: saline + alcohol) was 115 % of control, the T/C (dose: 7.5 mg/kg/injection, schedule: Q01DX009 (ip), vehicle: saline with Tween-80) was 102 % of control and the T/C (dose: 15.0 mg/kg/injection, schedule: Q01DX009 (ip), vehicle: saline + alcohol) was 123 % of control. The T/C (dose: 15.0 mg/kg/injection, schedule: Q01DX009 (ip), vehicle: saline with Tween-80) was 103 % of control, the T/C (dose: 15.0 mg/kg/injection, schedule: Q01DX009 (ip), vehicle: saline) was 98 % of control and the T/C (dose: 30.0 mg/kg/injection, schedule: Q01DX009 (ip), vehicle: saline with Tween-80) was 97 % of control. The T/C (dose: 30.0 mg/kg/injection, schedule: Q01DX009 (ip), vehicle: saline) was 116 % of control, the T/C (dose: 60.0 mg/kg/injection, schedule: Q01DX009 (ip), vehicle: saline + alcohol) was 155 % of control and the T/C (dose: 60.0 mg/kg/injection, schedule: Q01DX009 (ip), vehicle: saline with Tween-80) was 98 % of control. The T/C (dose: 60.0 mg/kg/injection, schedule: Q01DX009 (ip), vehicle: saline) was 120 % of control.

`Cc1[nH]ccc2c(C)c3nc4ccccc4c3cc12` was tested, and the T/C [5] was 159 % of control.

For `Cc1c(C)c2c(c(C)c1OC(=O)CCC(=O)O)CCC(C)(CCCC(C)CCCC(C)CCCC(C)C)O2` (stereo not given), the T/C (dose: 25.0 mg/kg/injection, schedule: Q01DX009 (ip), vehicle: distilled water + Tween-80 + alcohol) was 96 % of control, the T/C (dose: 50.0 mg/kg/injection, schedule: Q01DX009 (ip), vehicle: distilled water + Tween-80 + alcohol) was 112 % of control and the T/C (dose: 100.0 mg/kg/injection, schedule: Q01DX009 (ip), vehicle: distilled water + Tween-80 + alcohol) was 114 % of control. The T/C (dose: 200.0 mg/kg/injection, schedule: Q01DX009 (ip), vehicle: distilled water + Tween-80 + alcohol) was 86 % of control.

`O=C1C2CC=CCC2C(=O)N1SC(Cl)(Cl)Cl` (stereo not given) was tested, and the T/C (dose: 0.78 mg/kg/injection, schedule: Q01DX009 (ip), vehicle: saline with Tween-80) was 90 % of control and 97 % of control, the T/C (dose: 1.56 mg/kg/injection, schedule: Q01DX009 (ip), vehicle: saline with Tween-80) was 97 % of control and the T/C (dose: 3.12 mg/kg/injection, schedule: Q01DX009 (ip), vehicle: saline with Tween-80) was 89 % of control. The T/C [8] was 93 % of control, the T/C [9] was 88 % of control and the T/C [10] was 89 % of control.

For `C1CN(P2(N3CC3)=NP(N3CC3)(N3CC3)=NP(N3CC3)(N3CC3)=N2)CCO1` (stereo not given), the T/C (dose: 1.0 mg/kg/injection, schedule: Q01DX009 (ip), vehicle: saline) was 87 % of control and 96 % of control, the T/C (dose: 1.0 mg/kg/injection, schedule: Q02DX009 (ip), vehicle: saline) was 88 % of control and 106 % of control and the T/C (dose: 2.0 mg/kg/injection, schedule: Q01DX009 (ip), vehicle: saline) was 87 % of control and 105 % of control. For the same compound, the T/C (dose: 2.0 mg/kg/injection, schedule: Q02DX009 (ip), vehicle: saline) was 114 % of control and 92 % of control, the T/C (dose: 4.0 mg/kg/injection, schedule: Q01DX009 (ip), vehicle: saline) was 101 % of control and the T/C (dose: 4.0 mg/kg/injection, schedule: Q02DX009 (ip), vehicle: saline) was 103 % of control. The T/C (dose: 8.0 mg/kg/injection, schedule: Q01DX009 (ip), vehicle: saline) was 110 % of control, the T/C (dose: 8.0 mg/kg/injection, schedule: Q02DX009 (ip), vehicle: saline) was 109 % of control and 121 % of control and the T/C (dose: 16.0 mg/kg/injection, schedule: Q01DX009 (ip), vehicle: saline) was 179 % of control. The T/C (dose: 16.0 mg/kg/injection, schedule: Q02DX009 (ip), vehicle: saline) was 169 % of control and the T/C (dose: 32.0 mg/kg/injection, schedule: Q01DX009 (ip), vehicle: saline) was 182 % of control and 205 % of control.

In the case of `NC1C(O)C(O)C(Nc2ncnc3nc[nH]c23)OC1C(O)CO` (stereo not given), the T/C (dose: 10.0 mg/kg/injection, schedule: Q01DX009 (ip), vehicle: saline) is reported as 99 % of control, the T/C (dose: 20.0 mg/kg/injection, schedule: Q01DX009 (ip), vehicle: saline) is reported as 96 % of control and the T/C (dose: 40.0 mg/kg/injection, schedule: Q01DX009 (ip), vehicle: saline) is reported as 94 % of control. The T/C (dose: 80.0 mg/kg/injection, schedule: Q01DX009 (ip), vehicle: saline) was 106 % of control.

In the case of `CN(C)N=Nc1ccnc2ccc(I)cc12`, the T/C (dose: 3.13 mg/kg/injection, schedule: Q01DX009 (ip), vehicle: other) is reported as 111 % of control, the T/C (dose: 6.25 mg/kg/injection, schedule: Q01DX009 (ip), vehicle: other) is reported as 115 % of control and the T/C (dose: 12.5 mg/kg/injection, schedule: Q01DX009 (ip), vehicle: other) is reported as 109 % of control. For the same compound, the T/C (dose: 25.0 mg/kg/injection, schedule: Q01DX009 (ip), vehicle: other) was 110 % of control and the T/C (dose: 50.0 mg/kg/injection, schedule: Q01DX009 (ip), vehicle: other) was 114 % of control.

For `COc1c2occc2c(N=NN(C)C)c2ccc(=O)oc12`, the T/C [8] was 98 % of control, the T/C [9] was 99 % of control and the T/C [10] was 104 % of control. The T/C (dose: 50.0 mg/kg/injection, schedule: Q01DX009 (ip), vehicle: saline with Tween-80) was 107 % of control.

`ClCc1ccc(Oc2ccc(CCl)cc2)cc1` was tested, and the T/C (dose: 3.12 mg/kg/injection, schedule: Q01DX009 (ip), vehicle: Klucel (hydroxypropylcellulose) (HPC)) was 101 % of control, the T/C (dose: 6.25 mg/kg/injection, schedule: Q01DX009 (ip), vehicle: Klucel (hydroxypropylcellulose) (HPC)) was 98 % of control and the T/C [4] was 107 % of control. The T/C [5] was 112 % of control and the T/C [6] was 93 % of control.

In the case of `C(CC1CO1)C1CO1` (stereo not given), the T/C (dose: 2.5 mg/kg/injection, schedule: Q01DX009 (ip), vehicle: Klucel (hydroxypropylcellulose) (HPC)) is reported as 94 % of control, the T/C (dose: 5.0 mg/kg/injection, schedule: Q01DX009 (ip), vehicle: Klucel (hydroxypropylcellulose) (HPC)) is reported as 101 % of control and the T/C (dose: 10.0 mg/kg/injection, schedule: Q01DX009 (ip), vehicle: Klucel (hydroxypropylcellulose) (HPC)) is reported as 101 % of control. For the same compound, the T/C [1] was 111 % of control, the T/C [2] was 107 % of control and the T/C [3] was 98 % of control.

With `NC(=O)c1ncn2c(=O)n(CCCl)nnc12` the T/C (dose: 3.13 mg/kg/injection, schedule: Q01DX009 (ip), vehicle: suspension in saline) was 123 % of control, the T/C (dose: 12.5 mg/kg/injection, schedule: Q01DX009 (ip), vehicle: suspension in saline) was 225 % of control and the T/C (dose: 25.0 mg/kg/injection, schedule: Q01DX009 (ip), vehicle: suspension in saline) was 209 % of control.

`CC(C)(C)OC(=O)NCCCCC(NC(=O)OCc1ccccc1)C(=O)O` (stereo not given) was tested, and the T/C [5] was 109 % of control, the T/C [6] was 94 % of control and the T/C [7] was 98 % of control.

With `Cc1cc(=NO)cc(C)n1O` the T/C (dose: 25.0 mg/kg/injection, schedule: Q01DX009 (ip), vehicle: distilled water + alcohol) was 109 % of control and 94 % of control, the T/C (dose: 50.0 mg/kg/injection, schedule: Q01DX009 (ip), vehicle: distilled water + alcohol) was 98 % of control and 105 % of control and the T/C (dose: 100.0 mg/kg/injection, schedule: Q01DX009 (ip), vehicle: distilled water + alcohol) was 87 % of control and 92 % of control. The T/C (dose: 200.0 mg/kg/injection, schedule: Q01DX009 (ip), vehicle: distilled water + alcohol) was 92 % of control and the T/C (dose: 400.0 mg/kg/injection, schedule: Q01DX009 (ip), vehicle: distilled water + alcohol) was 86 % of control and 89 % of control.
